# Read-outs that look alike come from different tables or passages of the source. Marks after values point to notes of the source that are not given here.
# Tests used:
# [1] = tested on: IL-1β; assay: Inflammatory factor experiment B: IL-1β in knee synovial tissue (ELISA); assay type: in vivo, SD rats; details: for inhibition in vivo at 0.6 mg/kg: Rattus norvegicus, po, 48 h, read-out: IL-1β percentage decrease %
# [2] = tested on: IL-6; assay: Inflammatory factor experiment B: IL-6 in knee synovial tissue (ELISA); assay type: in vivo, SD rats; details: Rattus norvegicus, po, 48 h, read-out: IL-6 percentage decrease %
# [3] = tested on: TNF-α; assay: Inflammatory factor experiment B: TNF-α in knee synovial tissue (ELISA); assay type: in vivo, SD rats; details: for inhibition in vivo at 0.6 mg/kg: Rattus norvegicus, po, 48 h, read-out: TNF-α percentage decrease %
# [4] = tested on: gouty arthritis rats (sodium urate, right ankle and knee joint cavities); assay: Pharmacodynamics experiment B on gouty arthritis rats: ankle swelling rate; assay type: in vivo, SD rats; details: for change in vivo at 0.6 mg/kg: Rattus norvegicus, po, read-out: Swelling rate (ankle); for Swelling rate (ankle): dose 0.6 mg/kg gavage
# Description: (§1) Compounds 12, 16, 19, 30, 34, 36, 38, 40, 44, 48, 49, 52, 58, 69, 83, 98, 102, 119, 121, and 122 were prepared by grinding with 0.5% CMC-Na prior to administration and formulated into suspensions of appropriate concentration (0.12 mg/mL) for gavage, with an administered dose of 0.5 mL/100 g.
# (§2) 240 SD rats, males, were acclimatized for one week and weighed 180-220 g. […] The dose of each compound group was 0.6 mg/kg. The compounds in each group were prepared into the corresponding concentration suspension, and the volume of administration was 10 mL/kg.
# (§3) 250 mg of sodium urate were added to 9 mL of saline, and 1 mL of Tween-80 solution was added, the resulting mixture was heated and stirred to formulate 10 mL of sodium urate solution. The rats were grasped and fixed, and 0.2 mL of sodium urate solution was injected into the right ankle and knee joint cavities respectively to establish gouty arthritis rat model.
# (§4) Before modeling, positive drug and tested compounds were pre-administered for 7 days, once a day, and modeling was performed on day 8, and drug administration by gavage continued for 3 days after modeling.
# Before modeling and 2 h, 4 h, 8 h, 10 h, 24 h and 48 h after modeling, the circumference of the right ankle joint was measured using a soft ruler or the volume change at the ankle was measured (volumetric method), and the swelling degree and swelling rate of ankle joint were calculated:
# Swelling degree (mm)=measured circumference (mm)−baseline circumference (mm)
# Swelling rate (%)=swelling degree (mm)/baseline circumference (mm)×100%
# (§5) Each experimental data was expressed as the mean, and intergroup comparisons were examined for significance using the ANOVA-Dunnett T-test, with P<0.05 as the significance indicator.
# [5] = tested on: gouty arthritis rats (sodium urate, right ankle and knee joint cavities); assay: Pharmacodynamics experiment B on gouty arthritis rats: gait score; assay type: in vivo, SD rats; details: for Gait Score: dose 0.6 mg/kg gavage, mean; for Gait versus model group, in words: compounds 0.6 mg/kg, colchicine 0.6 and 1.2 mg/kg
# Description: as §1, §2, §3, §4
# Gait was scored according to the modified gait grading criteria introduced by Coderre et al. The gait of each rat was observed before and 2 h, 4 h, 8 h, 10 h, 24 h and 48 h after modeling and graded scoring was performed. The gait grading criteria were as follows: 0 point, normal walking; 1 point, slight lameness, the lower limbs were slightly bent; 2 points: moderate lameness, the lower limbs just touched the ground; 3 points, severe lameness, the lower limbs left the ground, and walked on three feet. The mean score of each group was calculated and compared with that of the model group.
# as §5
# [6] = In vivo pharmacokinetics in SD rats
# Description: Compound stock solution preparation: an appropriate amount of solid powder of the compounds were weighed separately, a certain amount of DMSO was added and 20 mg/mL of stock solution was obtained under vortex ultrasound.
# Preparation of test compound for gavage: an appropriate amount of compound stock solution was taken by pipette, a certain amount of Solutol HS15 solution was added, the mixture was vortexed for 1 minute, then a certain amount of saline was added, and 1 mg/mL of solution was obtained after mixing well.
# Preparation of test compounds for intravenous injection: an appropriate amount of compound stock solution was taken by pipette separately, a certain amount of Solutol HS15 solution was added, the mixture was vortexed for 1 minute, then a certain amount of physiological saline was added and a solution of 0.5 mg/mL was obtained after mixing well.
# The animals were fasted overnight before administration by gavage, and food was given 4 hours after administration, during which they were free to drink. Two groups were set for each test compound, intravenous injection group and oral administration group, and the dose and mode of administration were shown in Table 12 below.
# The blood samples were centrifuged at 4° C. for 5 min at 2,000 g to separate the plasma. The plasma samples were analyzed by LC/MS/MS to detect the concentration of each test compound in the plasma samples.
# The parameters related to the […] were obtained by calculations with WinNonlin® Professional software.
# [7] = synovial tissue of knee joints, 48 h after modeling, dose 0.6 mg/kg
# [8] = Intravenous injection - 1 mg/kg
smiles,measurement,setting,value
"COc1cc2c(c(OC)c1OC)-c1ccc(=O)c(O[C@H]3CCOC3)cc1[C@@H](NC(C)=O)CC2 [Compound 19, N—{(S)-1,2,3-trimethoxy-10-oxo-9-{[(S)-tetrahydrofuran-3-yl]oxy}-5,6,7,10-tetrahydrobenzo[a]heptalen-7-yl}acetamide]",inhibition in vivo at 0.6 mg/kg,[1],81.5%
same,inhibition in vivo at 0.6 mg/kg,[2],98.1%
same,inhibition in vivo at 0.6 mg/kg,[3],84.7%
same,change in vivo at 0.6 mg/kg,[4]; 2 h,8.77%
same,change in vivo at 0.6 mg/kg,[4]; 4 h,10.9%
same,change in vivo at 0.6 mg/kg,[4]; 8 h,17.1%
same,change in vivo at 0.6 mg/kg,[4]; 10 h,14.1%
same,change in vivo at 0.6 mg/kg,[4]; 24 h,19.4%
same,change in vivo at 0.6 mg/kg,[4]; 48 h,7.77%
same,Gait Score,[5]; 2 h,0.0
same,Gait Score,[5]; 4 h,0
same,Gait Score,[5]; 8 h,0**
same,Gait Score,[5]; 10 h,0**
same,Gait Score,[5]; 24 h,0.2
same,Gait Score,[5]; 48 h,0.1
same,"Gait versus model group, in words",[5],significant improvement in gait occurred at different time points
"COc1cc2c(c(OC)c1OC)-c1ccc(C#N)c(=O)cc1[C@@H](NC(C)=O)CC2 [Compound 38, (S)—N-(10-cyano-1,2,3-trimethoxy-9-oxo-5,6,7,9-tetrahydrobenzo[a]heptalen-7-yl)acetamide]",inhibition in vivo at 0.6 mg/kg,[1],102%
same,inhibition in vivo at 0.6 mg/kg,[2],69%
same,inhibition in vivo at 0.6 mg/kg,[3],86.6%
same,change in vivo at 0.6 mg/kg,[4]; 2 h,6.34%
same,change in vivo at 0.6 mg/kg,[4]; 4 h,12.6%
same,change in vivo at 0.6 mg/kg,[4]; 8 h,10.4%
same,change in vivo at 0.6 mg/kg,[4]; 10 h,17.9%
same,change in vivo at 0.6 mg/kg,[4]; 24 h,16.9%
same,change in vivo at 0.6 mg/kg,[4]; 48 h,6.71%
same,Gait Score,[5]; 2 h,0
same,Gait Score,[5]; 4 h,0
same,Gait Score,[5]; 8 h,0*
same,Gait Score,[5]; 10 h,0*
same,Gait Score,[5]; 24 h,0
same,Gait Score,[5]; 48 h,0
same,"Gait versus model group, in words",[5],significant improvement in gait occurred at different time points
"COc1cc2c(c(OC)c1OC)-c1ccc(C(=O)N3CCC[C@H]3C#N)c(=O)cc1[C@@H](NC(C)=O)CC2 [Compound 60, N—{(S)-10-[(S)-2-cyanopyrrolidin-1-carbonyl]-1,2,3-trimethoxy-9-oxo-5,6,7,9-tetrahydrobenzo[a]heptalen-7-yl}acetamide]",inhibition in vivo at 0.6 mg/kg,[1],76.1%
same,inhibition in vivo at 0.6 mg/kg,[2],59.5%
same,inhibition in vivo at 0.6 mg/kg,[3],85.8%
"COc1cc2c(c(OC)c1OC)-c1ccc(C(=O)N3CCCC3)c(=O)cc1[C@@H](NC(C)=O)CC2 [Compound 61, (S)—N-{1,2,3-trimethoxy-9-oxo-10-(pyrrolidin-1-carbonyl)-5,6,7,9-tetrahydrobenzo[a]heptalen-7-yl}acetamide]",inhibition in vivo at 0.6 mg/kg,[1],97.2%
same,inhibition in vivo at 0.6 mg/kg,[2],52.5%
same,inhibition in vivo at 0.6 mg/kg,[3],71.2%
"CNC(=O)N[C@H]1CCc2cc(OC)c(OC)c(OC)c2-c2ccc(C(=O)NC)c(=O)cc21 [Compound 81, (S)-1,2,3-trimethoxy-N-methyl-7-(3-methylureido)-9-oxo-5,6,7,9-tetrahydrobenzo[a]heptalen-10-carboxamide]",inhibition in vivo at 0.6 mg/kg,[1],86.6%
same,inhibition in vivo at 0.6 mg/kg,[2],70.6%
same,inhibition in vivo at 0.6 mg/kg,[3],78%
"COc1cc2c(c(OC)c1OC)-c1ccc(-n3cnnn3)c(=O)cc1[C@@H](NC(C)=O)CC2 [Compound 95, (S)—N-{1,2,3-trimethoxy-9-oxo-10-(1H-tetrazol-1-yl)-5,6,7,9-tetrahydrobenzo[a]heptalen-7-yl}acetamide]",inhibition in vivo at 0.6 mg/kg,[1],40.4%
same,inhibition in vivo at 0.6 mg/kg,[2],109%
same,inhibition in vivo at 0.6 mg/kg,[3],70%
"COc1cc2c(c(OC)c1OC)-c1ccc(-n3ccnc3)c(=O)cc1[C@@H](NC(C)=O)CC2 [Compound 97, (S)—N-{10-(1H-imidazol-1-yl)-1,2,3-trimethoxy-9-oxo-5,6,7,9-tetrahydrobenzo[a]heptalen-7-yl}acetamide]",inhibition in vivo at 0.6 mg/kg,[1],20.2%
same,inhibition in vivo at 0.6 mg/kg,[2],97.8%
same,inhibition in vivo at 0.6 mg/kg,[3],92%
"COc1cc2c(c(OC)c1OC)-c1ccc(-n3ccnn3)c(=O)cc1[C@@H](NC(C)=O)CC2 [Compound 99, (S)—N-(1,2,3-trimethoxy-9-oxo-10-(1H-1,2,3-triazol-1-yl)-5,6,7,9-tetrahydrobenzo[a]heptalen-7-yl)acetamide]",inhibition in vivo at 0.6 mg/kg,[1],66.4%
same,inhibition in vivo at 0.6 mg/kg,[2],79.6%
same,inhibition in vivo at 0.6 mg/kg,[3],91.7%
"COc1cc2c(c(OC)c1OC)-c1ccc(-n3nccn3)c(=O)cc1[C@@H](NC(C)=O)CC2 [Compound 100, (S)—N-(1,2,3-trimethoxy-9-oxo-10-(2H-1,2,3-triazol-2-yl)-5,6,7,9-tetrahydrobenzo[a]heptalen-7-yl)acetamide]",inhibition in vivo at 0.6 mg/kg,[1],65.2%
same,inhibition in vivo at 0.6 mg/kg,[2],169%
same,inhibition in vivo at 0.6 mg/kg,[3],120%
"COC(=O)c1ccc2c(cc1=O)[C@@H](N1CCCCC1=O)CCc1cc(OC)c(OC)c(OC)c1-2 [Compound 108, methyl (S)-1,2,3-trimethoxy-9-oxo-7-(2-oxopiperidin-1-yl)-5,6,7,9-tetrahydrobenzo[a]heptalen-10-carboxylate]",inhibition in vivo at 0.6 mg/kg,[1],92.7%
same,inhibition in vivo at 0.6 mg/kg,[2],207%
same,inhibition in vivo at 0.6 mg/kg,[3],104%
CCNS(=O)(=O)N[C@H]1CCc2cc(OC)c(OC)c(OC)c2-c2ccc(C(=O)OC)c(=O)cc21 [Compound 112],inhibition in vivo at 0.6 mg/kg,[1],92%
same,inhibition in vivo at 0.6 mg/kg,[2],165%
same,inhibition in vivo at 0.6 mg/kg,[3],97.8%
"[2H]C([2H])([2H])Oc1c(OC)cc2c(c1OC)-c1ccc(C(=O)NC)c(=O)cc1[C@@H](NC(C)=O)CC2 [Compound 122, (S)-7-acetamido-1,3-dimethoxy-2-trideutero-methoxy-N-methyl-9-oxo-5,6,7,9-tetrahydrobenzo[a]heptalen-10-carboxamide]",IL-1β percentage decrease %,[1]; [7],86.87%
same,AUCINF,[6]; Gavage - 10 mg/kg,3129 ng·h/mL
same,Cmax,[6]; Gavage - 10 mg/kg,1153 ng/mL
same,MRTINF,[6]; Gavage - 10 mg/kg,2.47 h
same,Tmax,[6]; Gavage - 10 mg/kg,15 min
same,t1/2,[6]; Gavage - 10 mg/kg,1.79 h
same,F,"[6]; Gavage - 10 mg/kg, calculated by AUCINF",50.1%
same,AUCINF,[6]; [8],624 ng·h/mL
same,CL,[6]; [8],1.63 L/h/kg
same,MRTINF,[6]; [8],1.34 h
same,VSS,[6]; [8],1.99 L/kg
same,t1/2,[6]; [8],1.57 h
same,TNF-α percentage decrease %,[3]; [7],98.89%
same,Swelling rate (ankle),[4]; 2 h,7.9%**
same,Swelling rate (ankle),[4]; 4 h,12.1%**
same,Swelling rate (ankle),[4]; 8 h,15.8%**
same,Swelling rate (ankle),[4]; 10 h,15.3%**
same,Swelling rate (ankle),[4]; 24 h,12.5%**
same,Swelling rate (ankle),[4]; 48 h,4.7%**
same,Gait Score,[5]; 0 h,0
same,Gait Score,[5]; 2 h,0
same,Gait Score,[5]; 4 h,0.2
same,Gait Score,[5]; 8 h,0.1
same,Gait Score,[5]; 10 h,0.2
same,Gait Score,[5]; 24 h,0.1
same,Gait Score,[5]; 48 h,0
